One assay deals with T1, human androgen receptor (Homo sapiens, UniProt P10275).
T1 construct: expressed in transfected cells; host or cells: HEK293
T1 sequence (P10275 1-920): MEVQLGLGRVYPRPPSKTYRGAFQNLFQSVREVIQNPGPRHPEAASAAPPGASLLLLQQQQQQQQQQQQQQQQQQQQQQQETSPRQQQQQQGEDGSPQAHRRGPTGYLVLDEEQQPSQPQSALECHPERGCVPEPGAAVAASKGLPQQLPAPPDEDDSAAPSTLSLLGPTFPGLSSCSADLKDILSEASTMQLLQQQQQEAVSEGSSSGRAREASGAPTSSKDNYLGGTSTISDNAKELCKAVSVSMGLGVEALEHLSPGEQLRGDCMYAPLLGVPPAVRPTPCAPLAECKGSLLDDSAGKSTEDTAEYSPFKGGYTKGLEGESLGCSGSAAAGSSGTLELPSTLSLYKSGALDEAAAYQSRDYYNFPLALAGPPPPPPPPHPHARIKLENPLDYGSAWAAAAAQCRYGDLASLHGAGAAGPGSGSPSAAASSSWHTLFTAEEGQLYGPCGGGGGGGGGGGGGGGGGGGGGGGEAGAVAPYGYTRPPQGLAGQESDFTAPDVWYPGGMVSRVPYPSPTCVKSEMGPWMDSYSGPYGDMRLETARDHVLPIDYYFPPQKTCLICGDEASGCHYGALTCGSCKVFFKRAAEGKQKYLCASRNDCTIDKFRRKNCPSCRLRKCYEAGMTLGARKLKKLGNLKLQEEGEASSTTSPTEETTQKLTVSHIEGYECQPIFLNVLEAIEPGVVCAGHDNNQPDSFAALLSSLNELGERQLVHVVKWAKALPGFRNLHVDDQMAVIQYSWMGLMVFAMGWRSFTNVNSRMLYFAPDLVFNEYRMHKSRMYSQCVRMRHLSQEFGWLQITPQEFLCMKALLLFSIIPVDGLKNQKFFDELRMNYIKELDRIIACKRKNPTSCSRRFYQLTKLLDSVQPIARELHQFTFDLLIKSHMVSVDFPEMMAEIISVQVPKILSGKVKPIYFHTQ
The experiment in a line: Reporter assay of an androgen receptor responsive sequence (luciferase, transiently transfected HEK293 cells). The conditions noted are these: 24 hours incubation, relative to activity of 100 nM DHT, read-out: AR transcriptive activity (pEC50) (converted). In kind it is cell-based. The procedure, abridged:
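Agonism scored as pEC50, fitted by 4-parameter curve against the response to 100 nM DHT, from dual-luciferase readout after 24 h compound treatment. Cells were HEK293 co-transfected (3 h) with human AR expression vector, androgen-responsive firefly reporter and Renilla control, in charcoal-stripped serum.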
For orientation: A reporter such as luciferase makes a cellular process visible.

Assay [1] deals with T2, androgen receptor (AR-LBD) (Rattus norvegicus, UniProt P15207).
T2 construct: 5 μL of 2×AR-LBD/Fluoromone AL Red Complex contained in the kit; purchased Invitrogen
T2 sequence (P15207 651-882 limits assumed): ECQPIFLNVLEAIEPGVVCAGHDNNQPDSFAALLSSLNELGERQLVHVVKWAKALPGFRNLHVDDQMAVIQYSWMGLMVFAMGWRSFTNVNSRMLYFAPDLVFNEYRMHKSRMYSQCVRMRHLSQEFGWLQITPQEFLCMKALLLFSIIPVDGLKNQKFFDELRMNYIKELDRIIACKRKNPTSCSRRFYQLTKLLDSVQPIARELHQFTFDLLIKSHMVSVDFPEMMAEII
Put plainly: Evaluation of androgen receptor affinity (PolarScreen Androgen Receptor Competitor Assay Kit, Red; fluorescence polarization). To be noted: 22° C. for 5 hours, relative to binding rate of 1 μM DHT, read-out: AR affinity (pEC50) (converted). The procedure, abridged:
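FP competition: compound + AR-LBD/Fluoromone AL Red tracer complex, 22° C, 5 h. Reference 1 μM DHT binding rate; pEC50 by 4-parameter fit.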
(In general: Fluorescence polarisation rises when a labelled molecule tumbles more slowly, as on binding a larger partner.)

With `Cc1sc(N(CCC2CCCCC2)Cc2ccc(Cl)cc2)nc1C(=O)NS(=O)(=O)Cc1cccc(F)c1` [Compound 731, 2-[(4-chlorophenyl)methyl-(2-cyclohexylethyl)amino]-N-[(3-fluorophenyl)methylsulfonyl]-5-methyl-thiazole-4-carboxamide], the figures for the EC50 (on human androgen receptor; in assay [1]) were greater than 10000 nM and 501 nM, respectively.
For `Cc1sc(N(CCC2CCCCC2)Cc2ccc(OC(F)(F)F)cc2)nc1C(=O)NS(C)(=O)=O` [Compound 732, 2-[2-cyclohexylethyl-[[4-(trifluoromethoxy)phenyl]methyl]amino]-5-methyl-N-methylsulfonyl-thiazole-4-carboxamide], in that order: greater than 10000 nM and 100 nM.
For `CCS(=O)(=O)NC(=O)c1nc(N(CCC2CCCCC2)Cc2ccc(OC(F)(F)F)cc2)sc1C` [Compound 733, 2-[2-cyclohexylethyl-[[4-(trifluoromethoxy)phenyl]methyl]amino]-N-ethylsulfonyl-5-methyl-thiazole-4-carboxamide], in that order: greater than 10000 nM and 200 nM.
The like results for `Cc1sc(N(CCC2CCCCC2)Cc2ccc(OC(F)(F)F)cc2)nc1C(=O)NS(=O)(=O)C1CC1` [Compound 734, 2-[2-cyclohexylethyl-[[4-(trifluoromethoxy)phenyl]methyl]amino]-N-cyclopropylsulfonyl-5-methyl-thiazole-4-carboxamide] were, in that order, greater than 10000 nM and 1000 nM.
Take `Cc1sc(N(CCC2CCCCC2)Cc2ccc(OC(F)(F)F)cc2)nc1C(=O)NS(=O)(=O)Cc1cccc(F)c1` [Compound 735, 2-[2-cyclohexylethyl-[[4-(trifluoromethoxy)phenyl]methyl]amino]-N-[(3-fluorophenyl)methylsulfonyl]-5-methyl-thiazole-4-carboxamide]: the EC50 at human androgen receptor is greater than 10000 nM; in assay [1], 1000 nM.
Take `Cc1sc(N(CCn2cc(C#N)cn2)Cc2ccc(Cl)cc2)nc1C(=O)NS(C)(=O)=O` [Compound 736, 2-[(4-chlorophenyl)methyl-[2-(4-cyanopyrazol-1-yl)ethyl]amino]-5-methyl-N-methylsulfonyl-thiazole-4-carboxamide]: the EC50 is 501 nM on human androgen receptor and 200 nM in assay [1].
`CNC(=O)c1ccc(CCN(Cc2ccccc2)c2nc(C(=O)NS(C)(=O)=O)c(C)s2)cc1` [Compound 738, 2-[benzyl-[2-[4-(methylcarbamoyl)phenyl]ethyl]amino]-5-methyl-N-methylsulfonyl-thiazole-4-carboxamide]: the EC50 is 6310 nM on human androgen receptor and 501 nM in assay [1].
For `COCCCS(=O)(=O)NC(=O)c1nc(N(CCc2ccc(C#N)cc2)Cc2ccc(Cl)cc2)sc1C` [Compound 739, 2-[(4-chlorophenyl)methyl-[2-(4-cyanophenyl)ethyl]amino]-N-(3-methoxypropylsulfonyl)-5-methyl-thiazole-4-carboxamide], the EC50 is 251 nM on human androgen receptor and 31.6 nM in assay [1].
The like results for `COCCCS(=O)(=O)NC(=O)c1nc(N(CCc2ccc(C#N)cc2)Cc2ccc(OC(F)(F)F)cc2)sc1C` [Compound 740, 2-[2-(4-cyanophenyl)ethyl-[[4-(trifluoromethoxy)phenyl]methyl]amino]-N-(3-methoxypropylsulfonyl)-5-methyl-thiazole-4-carboxamide] were, in that order, 1000 nM and 25.1 nM.
On to `Cc1sc(N(CCc2ccc(C#N)cc2)Cc2ccc(Cl)cc2)nc1C(=O)NS(=O)(=O)Cc1ccncc1` [Compound 741, 2-[(4-chlorophenyl)methyl-[2-(4-cyanophenyl)ethyl]amino]-5-methyl-N-(4-pyridylmethylsulfonyl)thiazole-4-carboxamide], for which the EC50 at human androgen receptor was 158 nM; in assay [1], 25.1 nM.
`Cc1sc(N(CCc2ccc(C#N)cc2)Cc2ccc(OC(F)(F)F)cc2)nc1C(=O)NS(=O)(=O)Cc1ccncc1` [Compound 742, 2-[2-(4-cyanophenyl)ethyl-[[4-(trifluoromethoxy)phenyl]methyl]amino]-5-methyl-N-(4-pyridylmethylsulfonyl)thiazole-4-carboxamide]: the EC50 at human androgen receptor is 2000 nM; in assay [1], 25.1 nM.
Take `Cc1sc(N(Cc2ccccc2)c2ccc3nccnc3c2)nc1C(=O)NS(C)(=O)=O` [Compound 744, 2-[benzyl(quinoxalin-6-yl)amino]-5-methyl-N-methylsulfonyl-thiazole-4-carboxamide]: the values for the EC50 (on human androgen receptor; in assay [1]) were 1260 nM and 316 nM, respectively.
For the molecule `COCCCS(=O)(=O)NC(=O)c1nc(N(Cc2ccc(OC(F)F)cc2)c2ccc(C#N)cc2)sc1C` [Example 165, 2-[4-cyano-N-[[4-(difluoromethoxy)phenyl]methyl]anilino]-N-(3-methoxypropylsulfonyl)-5-methyl-thiazole-4-carboxamide], the figures for the EC50 (at human androgen receptor; in assay [1]) were 158 nM and 50.1 nM, respectively.
Consider `COCCCS(=O)(=O)NC(=O)c1nc(N(Cc2ccc(Cl)cc2)c2ccc(C#N)cc2)sc1C` [Example 166, 2-[N-[(4-chlorophenyl)methyl]-4-cyano-anilino]-N-(3-methoxypropylsulfonyl)-5-methyl-thiazole-4-carboxamide], for which the EC50 was 79.4 nM at human androgen receptor and 25.1 nM in assay [1].
For the molecule `Cc1sc(N(Cc2ccc(C(F)(F)F)c(F)c2)c2ccc(C#N)cc2)nc1C(=O)NS(C)(=O)=O` [Example 167, 2-[4-cyano-N-[[3-fluoro-4-(trifluoromethyl)phenyl]methyl]anilino]-5-methyl-N-methylsulfonyl-thiazole-4-carboxamide], the EC50 on human androgen receptor is 31.6 nM; in assay [1], 25.1 nM.
Turning to `Cc1sc(N(Cc2ncc(Cl)cc2F)c2ccc(C#N)cc2)nc1C(=O)NS(C)(=O)=O` [Example 168, 2-[N-[(5-chloro-3-fluoro-2-pyridyl)methyl]-4-cyano-anilino]-5-methyl-N-methylsulfonyl-thiazole-4-carboxamide], the EC50 at human androgen receptor was 200 nM; in assay [1] it was 100 nM.
Turning to `COCCCS(=O)(=O)NC(=O)c1nc(N(Cc2ncc(Cl)cc2F)c2ccc(C#N)cc2)sc1C` [Example 169, 2-[N-[(5-chloro-3-fluoro-2-pyridyl)methyl]-4-cyano-anilino]-N-(3-methoxypropylsulfonyl)-5-methyl-thiazole-4-carboxamide], the figures for the EC50 (on human androgen receptor; in assay [1]) were 501 nM and 200 nM, respectively.
For the molecule `Cc1sc(N(Cc2ncc(C(F)(F)F)cc2F)c2ccc(C#N)cc2)nc1C(=O)NS(C)(=O)=O` [Example 170, 2-[4-cyano-N-[[3-fluoro-5-(trifluoromethyl)-2-pyridyl]methyl]anilino]-5-methyl-N-methylsulfonyl-thiazole-4-carboxamide], the EC50 was 200 nM on human androgen receptor and 63.1 nM in assay [1].
Consider `COCCCS(=O)(=O)NC(=O)c1nc(N(Cc2ncc(C(F)(F)F)cc2F)c2ccc(C#N)cc2)sc1C` [Example 171, 2-[4-cyano-N-[[3-fluoro-5-(trifluoromethyl)-2-pyridyl]methyl]anilino]-N-(3-methoxypropylsulfonyl)-5-methyl-thiazole-4-carboxamide], for which the values for the EC50 (at human androgen receptor; in assay [1]) were 631 nM and 126 nM, respectively.
With `Cc1sc(N(Cc2ccc(OC(F)F)c(F)c2)c2ccc(C#N)cc2)nc1C(=O)NS(C)(=O)=O` [Example 172, 2-[4-cyano-N-[[4-(difluoromethoxy)-3-fluoro-phenyl]methyl]anilino]-5-methyl-N-methylsulfonyl-thiazole-4-carboxamide], the EC50 (at human androgen receptor; in assay [1]) was 31.6 nM throughout.
As for `Cc1sc(N(Cc2ccc(F)c(C(F)(F)F)c2)c2ccc(C#N)cc2)nc1C(=O)NS(C)(=O)=O` [Example 173, 2-[4-cyano-N-[[4-fluoro-3-(trifluoromethyl)phenyl]methyl]anilino]-5-methyl-N-methylsulfonyl-thiazole-4-carboxamide], the EC50 on human androgen receptor was 79.4 nM; in assay [1], 25.1 nM.

Source of the values: patent publication US10689354B2, “Aminoazole derivative” (Teijin Pharma Limited, priority 2015, dated 2020).
